The source of these data is the supplement of paper PMC11061612.

What all share (experiment): Bliss excess, mean over the matrix (fraction); higher = more synergy
One assay deals with RPMI-7951 (Melanoma). The method, boiled down:
(§1)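 Cell lines grown in DMEM/F12 or RPMI with 10% FBS were plated in 1536-well plates and held 24 hours at 37°C, 5% CO2 before 72 hours of exposure to two-drug dose matrices, with DMSO typically at 0.2%. CellTiter-Glo 2.0 luminescence gave viability, which was converted to inhibition. Vehicle wells were set to 0 and blank wells to 1. Combination Emax is the second-highest inhibition in the matrix, and Bliss excess is the observed combination effect minus the expected EA + EB − EA·EB, where EA and EB are the single-agent effects.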

In a further assay the test system is NH-12 (Neuroblastoma). The method, boiled down:
as §1

In assay [1] the test system is HuP-T3 (Pancreatic Carcinoma). The method, boiled down: as §1
The subject of assay [2] is JHH-7 (Hepatocellular Carcinoma). The method, boiled down: as §1
Assay [3] concerns DG-75 (Burkitt's Lymphoma). The method, boiled down:
as §1

Assay [4] concerns PF-382 (T-Lymphoblastic Leukemia). Summed up: as §1
For assay [5], the system named is SCC-9 (Oral Cavity Carcinoma). Summed up: as §1
The test system of a further assay is NB7 (Neuroblastoma). The method, boiled down:
as §1

Assay [6] has as its system HSC-2 (Oral Cavity Carcinoma). The method, boiled down:
as §1

Assay [7] has as its system NCI-H2405 (Lung Adenocarcinoma). Summed up: as §1
Assay [8] deals with NCI-H2347 (Lung Adenocarcinoma). Summed up: as §1
The test system of assay [9] is NCI-H513 (Other Solid Carcinomas). Summed up:
as §1

For assay [10], the system named is LOU-NH91 (Squamous Cell Lung Carcinoma). Summed up:
as §1

Assay [11] concerns OVISE (Ovarian Carcinoma). The method, boiled down: as §1
For assay [12], the system named is TGBC11TKB (Gastric Carcinoma). The method, boiled down: as §1
In assay [13] the test system is OCUM-1 (Gastric Carcinoma). Summed up:
as §1

The subject of assay [14] is OCUB-M (Breast Carcinoma). Summed up:
as §1

For assay [15], the system named is KLE (Endometrial Carcinoma). Summed up:
as §1

The test system of assay [16] is EMC-BAC-2 (Non-Small Cell Lung Carcinoma). The method, boiled down:
as §1

The next assay deals with BT-20 (Breast Carcinoma). Summed up:
as §1

SMILES strings stand for the structures.

As to `COc1nnc2ccc(N3CCC(c4ccc(OCCN5CCN(C)C(=O)[C@H]5C)cc4)CC3)nn12` [AZD5153] + CCN(CCO)CCCOc1ccc2c(Nc3cc(CC(=O)Nc4cccc(F)c4)[nH]n3)ncnc2c1 [AZD2811] (first compound max 1 µM, 7x7, partner max 1 µM), the Bliss excess is -0.0243 in the assay on RPMI-7951 (Melanoma); -0.121 with NH-12 (Neuroblastoma); -0.0306 in assay [1]; -0.0696 in assay [2]; 0.0144 in assay [3]; -0.0108 in assay [4]. Moreover, the Bliss excess in [5] was -0.0476; with NB7 (Neuroblastoma), -0.0296; in [6], -0.0106; in [7], -0.0102; in assay [8], -0.0549; in [9], -0.108. Further, the Bliss excess in assay [10] is -0.0363; in [11], -0.017; in assay [12], -0.0962; in [13], -0.0194; in [14], -0.133; in assay [15], -0.0704. The Bliss excess in assay [16] is -0.0242; in the assay on BT-20 (Breast Carcinoma) it was -0.0105.

With `CS(=O)(=O)CCNCc1ccc(-c2ccc3ncnc(Nc4ccc(OCc5cccc(F)c5)c(Cl)c4)c3c2)o1` [Lapatinib] + NC1(c2ccc(-c3nc4ccn5c(=O)[nH]nc5c4cc3-c3ccccc3)cc2)CCC1 [MK-2206] (first compound max 10 µM, 7x7, partner max 10 µM), the Bliss excess was -0.036 in [2]; -0.0144 in assay [4]; 0.0038 in assay [5]; 0.0221 in the assay on NB7 (Neuroblastoma); 0.0806 in assay [6]; -0.111 in assay [7]. Also, the Bliss excess in assay [8] is -0.0315; in assay [9] it was -0.0369; in assay [11] it was 0.0286; in assay [12], -0.0334; in assay [13], -0.0313; in [14], 0.142.

Regarding `Cc1c2c(nn1C)CSCc1cc(n(C)n1)CSc1cc(c3ccccc3c1)OCCCc1c(C(=O)O)n(C)c3c-2c(Cl)ccc13` [AZD5991] + C=CCn1c(=O)c2cnc(Nc3ccc(N4CCN(C)CC4)cc3)nc2n1-c1cccc(C(C)(C)O)n1 [AZD1775] (first compound max 1 µM, partner max 1 µM), the Bliss excess with NH-12 (Neuroblastoma) was -0.0549; in [1], -0.0454; in assay [2], 0.0348; in [3], -0.0098; in [4], -0.0314; in assay [5], -0.0123. The Bliss excess with NB7 (Neuroblastoma) is -0.0084; in [6], -0.0132; in [7], 0.0385; in [8], -0.0393; in assay [9], -0.003; in assay [10] it was 0.0376. Besides, the Bliss excess in assay [11] was 0.0108; in assay [12], -0.0383; in [13], -0.0148; in assay [14], 0.034; in assay [15], -0.0616; in assay [16], -0.0121. For the same compound, in the assay on BT-20 (Breast Carcinoma), the Bliss excess was -0.02.

As to `COc1nnc2ccc(N3CCC(c4ccc(OCCN5CCN(C)C(=O)[C@H]5C)cc4)CC3)nn12` [AZD5153] + CN(CC[C@H](CSC1=CC=CC=C1)NC2=C(C=C(C=C2)S(=O)(=O)NC(=O)C3=CC=C(C=C3)N4CCC(CC4)[C@H](C5=CC=CC=C5C6=CC=C(C=C6)Cl)O)S(=O)(=O)C(F)(F)F)CCO [AZD4320] (first compound max 1 µM, 7x7, partner max 1 µM), the Bliss excess is 0.0467 in the assay on RPMI-7951 (Melanoma); -0.0413 with NH-12 (Neuroblastoma); 0.0559 in assay [1]; -0.0557 in assay [3]; 0.0343 in [4]; 0.0342 in [7]. Moreover, the Bliss excess was -0.042 in assay [8]; -0.0177 in assay [9]; -0.0215 in assay [10]; 0.0504 in assay [11]; 0.0847 in assay [15]; 0.0491 in assay [16]. Besides, the Bliss excess with BT-20 (Breast Carcinoma) was -0.0001.

For the compound `CC(=O)c1c(C)c2cnc(Nc3ccc(N4CCNCC4)cn3)nc2n(C2CCCC2)c1=O` [Palbociclib] + CN(CC[C@H](CSC1=CC=CC=C1)NC2=C(C=C(C=C2)S(=O)(=O)NC(=O)C3=CC=C(C=C3)N4CCC(CC4)[C@H](C5=CC=CC=C5C6=CC=C(C=C6)Cl)O)S(=O)(=O)C(F)(F)F)CCO [AZD4320] (first compound max 10 µM, 7x7, partner max 1 µM), the Bliss excess in the assay with RPMI-7951 (Melanoma) is 0.0312; in the assay on NH-12 (Neuroblastoma), 0.0594; in assay [1] it was -0.074; in [3] it was -0.0373; in [4], -0.0062; in assay [7] it was -0.0614. For the same compound, the Bliss excess in [8] is -0.109; in assay [9], -0.0718; in assay [10], -0.0157; in assay [11] it was -0.0207; in [15], -0.0276; in assay [16], -0.193. Further, the Bliss excess in the assay on BT-20 (Breast Carcinoma) is -0.01.

With `C[C@@H](c1ccc2nccn2c1)n1nnc2ncc(-c3cnn(C)c3)nc21` [Savolitinib] + CN(CC[C@H](CSC1=CC=CC=C1)NC2=C(C=C(C=C2)S(=O)(=O)NC(=O)C3=CC=C(C=C3)N4CCC(CC4)[C@H](C5=CC=CC=C5C6=CC=C(C=C6)Cl)O)S(=O)(=O)C(F)(F)F)CCO [AZD4320] (first compound max 1 µM, 7x7, partner max 1 µM), the Bliss excess is -0.0203 in the assay with RPMI-7951 (Melanoma); -0.0131 in the assay with NH-12 (Neuroblastoma); -0.0586 in assay [1]; -0.0338 in assay [3]; -0.0665 in [4]; -0.0553 in assay [7]. The Bliss excess in assay [8] was -0.0474; in assay [9], -0.0473; in assay [10] it was -0.0642; in [11], -0.0472; in assay [15], -0.0664; in assay [16], -0.0794. Also, in the assay on BT-20 (Breast Carcinoma), the Bliss excess is -0.0084.

With `Cc1c2c(nn1C)CSCc1cc(n(C)n1)CSc1cc(c3ccccc3c1)OCCCc1c(C(=O)O)n(C)c3c-2c(Cl)ccc13` [AZD5991] + CCN(CCO)CCCOc1ccc2c(Nc3cc(CC(=O)Nc4cccc(F)c4)[nH]n3)ncnc2c1 [AZD2811] (first compound max 1 µM, 7x7, partner max 1 µM), the Bliss excess in the assay on RPMI-7951 (Melanoma) is -0.0924; with NH-12 (Neuroblastoma), -0.0331; in [1], -0.019; in assay [2], 0.0144; in [3] it was 0.0704; in [4], 0.0276. The Bliss excess in the assay with NB7 (Neuroblastoma) was 0.0679; in assay [6], 0.0322; in assay [7] it was -0.0164; in assay [8], 0.0102; in assay [9], -0.0026; in assay [10] it was 0.0225. For the same compound, the Bliss excess was 0.0535 in assay [11]; 0.0266 in assay [12]; -0.0031 in assay [13]; -0.0116 in [14]; -0.0923 in assay [15]; 0.0438 in assay [16]. In addition, the Bliss excess in the assay on BT-20 (Breast Carcinoma) was 0.108.

`Cc1c2c(nn1C)CSCc1cc(n(C)n1)CSc1cc(c3ccccc3c1)OCCCc1c(C(=O)O)n(C)c3c-2c(Cl)ccc13` [AZD5991] + Cc1cc2ncnn2cc1Nc1ncc2c(n1)n(C1CCOCC1)c(=O)n2C [AZD7648] (first compound max 1 µM, 7x7, partner max 10 µM): the Bliss excess in the assay on RPMI-7951 (Melanoma) was -0.0317; with NH-12 (Neuroblastoma), -0.061; in assay [1], -0.0677; in assay [2] it was -0.0598; in [3] it was 0.0116; in assay [4] it was 0.038. Also, the Bliss excess in assay [5] was -0.0716; in the assay on NB7 (Neuroblastoma) it was -0.0079; in assay [7] it was -0.0391; in assay [8] it was -0.0472; in [9] it was -0.0127; in assay [10], -0.0307. Also, the Bliss excess in assay [11] was -0.043; in [12] it was -0.0954; in [13] it was -0.0093; in assay [14], -0.0448; in [15], -0.0598; in [16] it was -0.0141. The Bliss excess in the assay on BT-20 (Breast Carcinoma) is -0.0139.
